We go through 25 compounds from patent publication US9604975B2, “Indolyl-pyridone derivatives having checkpoint kinase 1 inhibitory activity” (Vernalis (R&D) Ltd., priority 2009, dated 2017).

The target in this assay is T1, CHK1 (Homo sapiens, UniProt O14757).
T1 construct: His; purchased Invitrogen
T1 sequence (O14757 1-476): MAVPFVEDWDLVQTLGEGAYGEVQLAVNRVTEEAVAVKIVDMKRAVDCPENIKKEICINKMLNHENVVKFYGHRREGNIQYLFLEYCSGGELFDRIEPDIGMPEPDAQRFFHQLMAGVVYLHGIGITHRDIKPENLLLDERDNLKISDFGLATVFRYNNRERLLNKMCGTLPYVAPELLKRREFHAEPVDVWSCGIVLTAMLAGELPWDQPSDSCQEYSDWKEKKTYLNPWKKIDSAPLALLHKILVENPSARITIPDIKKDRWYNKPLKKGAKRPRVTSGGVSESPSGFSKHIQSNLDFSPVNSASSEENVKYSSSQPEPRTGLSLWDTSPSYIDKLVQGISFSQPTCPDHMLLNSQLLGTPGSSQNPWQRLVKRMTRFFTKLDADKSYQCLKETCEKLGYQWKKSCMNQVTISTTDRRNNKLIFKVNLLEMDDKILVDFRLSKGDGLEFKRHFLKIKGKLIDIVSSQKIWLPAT
Briefly: CHK1 Enzyme Assay (phosphorylation of Chktide peptide, 33P-ATP filter assay). Type of assay: biochemical. Particulars: 12.5 nM His-CHK1, 0.01 mM ATP, 40 minutes at 30° C.; read-out: CHK1 Enzyme Activity (IC50 range). The method, boiled down: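 Filter-binding radiometric readout of 33P incorporation into Chktide (14.8 μM), after a 40 min, 30 °C reaction at pH 7.5 (50 mM Hepes-NaOH, 0.1 mg/mL BSA). The reaction contained 12.5 nM His-tagged CHK1, inhibitor and 0.01 mM cold ATP plus labelled ATP.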
For orientation: IC50 means the concentration needed to halve the response being measured. `CN(CCO)Cc1ccc2[nH]c(-c3cc(C(=O)Nc4cnn(Cc5ccc(F)c(F)c5)c4)c[nH]c3=O)cc2c1` [Example 101, 5-(5-{[(2-hydroxyethyl)-methylamino]-methyl}-1H-indol-2yl)-6-oxo-1,6-dihydropyridine-3-carboxylic acid[1-(3,4-difluorobenzyl)-1H-pyrazol-4-yl]-amide]: the concentration for half-maximal inhibition (IC50) was < 0.1 µM.
Under `CCN(CCO)Cc1ccc2[nH]c(-c3cc(C(=O)Nc4cnn(Cc5ccc(F)c(F)c5)c4)c[nH]c3=O)cc2c1` [Example 102, 5-(5-{[Ethyl-(2-hydroxyethyl)amino]-methyl}-1H-indol-2yl)-6-oxo-1,6-dihydropyridine-3-carboxylic acid[1-(3,4-difluorobenzyl)-1H-pyrazol-4-yl]-amide] stands < 0.1 µM; under `O=C(Nc1cnn(Cc2ccc(F)c(F)c2)c1)c1c[nH]c(=O)c(-c2cc3cc(CNCCO)ccc3[nH]2)c1` [Example 103, 5-{5-[(2-Hydroxyethylamino)-methyl]-1H-indol-2yl}-6-oxo-1,6-dihydropyridine-3-carboxylic acid[1-(3,4-difluorobenzyl)-1H-pyrazol-4-yl]-amide], < 0.1 µM.
Take `CN1CCN(Cc2ccc3[nH]c(-c4cc(C(=O)Nc5cnn(Cc6ccc(F)c(F)c6)c5)c[nH]c4=O)cc3c2)CC1` [Example 104, 5-[5-(4-Methyl-piperazin-1-ylmethyl)-1H-indol-2-yl]-6-oxo-1,6-dihydro-pyridine-3-carboxylic acid [1-(3,4-difluoro-benzyl)-1H-pyrazol-4-yl]-amide]: the IC50 was < 0.1 µM.
As for `O=C(Nc1cnn(Cc2ccc(F)c(F)c2)c1)c1c[nH]c(=O)c(-c2cc3cc(CN4CCN(CCO)CC4)ccc3[nH]2)c1` [Example 105, 5-{5-[4-(2-Hydroxyethyl)-piperazin-1-ylmethyl]-1H-indol-2yl}-6-oxo-1,6-dihydropyridine-3-carboxylic acid[1-(3,4-difluorobenzyl)-1H-pyrazol-4-yl]-amide], the IC50 was < 0.1 µM.
Under `CN(C)Cc1cccc2[nH]c(-c3cc(NC(=O)c4cnn(Cc5ccccc5)c4)c[nH]c3=O)cc12` [Example 106, 1-Benzyl-1H-pyrazole-4-carboxylic acid [5-(4-dimethylaminomethyl-1H-indol-2-yl)-6-oxo-1,6-dihydro-pyridin-3-yl]-amide] stands < 0.1 µM; under `CN1CCN(Cc2cccc3[nH]c(-c4cc(NC(=O)c5cnn(Cc6ccccc6)c5)c[nH]c4=O)cc23)CC1` [Example 107, 1-Benzyl-1H-pyrazole-4-carboxylic acid {5-[4-(4-methyl-piperazin-1-ylmethyl)-1H-indol-2-yl]-6-oxo-1,6-dihydro-pyridin-3-yl}-amide], < 0.1 µM.
Next, `O=C(Nc1c[nH]c(=O)c(-c2cc3c(CN4CCCCC4)cccc3[nH]2)c1)c1cnn(Cc2ccccc2)c1` [Example 108, 1-Benzyl-1H-pyrazole-4-carboxylic acid [6-oxo-5-(4-piperidin-1-ylmethyl-1H-indol-2-yl)-1,6-dihydro-pyridin-3-yl]-amide]: < 0.1 µM; `C[C@@H]1CN(Cc2cccc3[nH]c(-c4cc(NC(=O)c5cnn(Cc6ccccc6)c5)c[nH]c4=O)cc23)C[C@H](C)O1` [Example 109, 1-Benzyl-1H-pyrazole-4-carboxylic acid {5-[4-(cis-2,6-dimethyl-morpholin-4-ylmethyl)-1H-indol-2-yl]-6-oxo-1,6-dihydro-pyridin-3-yl}-amide]: < 0.1 µM; `O=C(Nc1cnn(Cc2ccc(F)nc2)c1)c1c[nH]c(=O)c(-c2cc3ccccc3[nH]2)c1` [Example 110, 5-(1H-Indol-2-yl)-6-oxo-1,6-dihydro-pyridine-3-carboxylic acid [1-(6-fluoro-pyridin-3-ylmethyl)-1H-pyrazol-4-yl]-amide]: 0.1 to 0.5 µM.
For the compound `O=C(Nc1c[nH]c(=O)c(-c2cc3ccccc3[nH]2)c1)c1cnn(Cc2ccc(F)nc2)c1` [Example 111, 1-(6-Fluoro-pyridin-3-ylmethyl)-1H-pyrazole-4-carboxylic acid [5-(1H-indol-2-yl)-6-oxo-1,6-dihydro-pyridin-3-yl]-amide], the IC50 was < 0.1 µM.
As to `Cc1ccc(Cn2cc(C(=O)Nc3c[nH]c(=O)c(-c4cc5cc(N6CCN(C)CC6)ccc5[nH]4)c3)cn2)cc1` [Example 112, 1-(4-Methyl-benzyl)-1H-pyrazole-4-carboxylic acid {5-[5-(4-methyl-piperazin-1-yl)-1H-indol-2-yl]-6-oxo-1,6-dihydro-pyridin-3-yl}-amide], the 50% inhibitory concentration (IC50) was < 0.1 µM.
As to `CN1CCN(c2ccc3[nH]c(-c4cc(NC(=O)c5cnn(Cc6ccccc6)c5)c[nH]c4=O)cc3c2)CC1` [Example 113, 1-Benzyl-1H-pyrazole-4-carboxylic acid {5-[5-(4-methyl-piperazin-1-yl)-1H-indol-2-yl]-6-oxo-1,6-dihydro-pyridin-3-yl}-amide], the IC50 is < 0.1 µM.
Next, `CN1CCN(c2ccc3[nH]c(-c4cc(NC(=O)c5cnn(Cc6ccc(F)cc6)c5)c[nH]c4=O)cc3c2)CC1` [Example 114, 1-(4-Fluoro-benzyl)-1H-pyrazole-4-carboxylic acid {5-[5-(4-methyl-piperazin-1-yl)-1H-indol-2-yl]-6-oxo-1,6-dihydro-pyridin-3-yl}-amide]: < 0.1 µM; `Cc1ccc(Cn2cc(C(=O)Nc3c[nH]c(=O)c(-c4cc5cc(OCCN6CCCCC6)ccc5[nH]4)c3)cn2)cc1` [Example 115, 1-(4-Methyl-benzyl)-1H-pyrazole-4-carboxylic acid {6-oxo-5-[5-(2-piperidin-1-yl-ethoxy)-1H-indol-2-yl]-1,6-dihydro-pyridin-3-yl}-amide]: < 0.1 µM; `Cc1ccc(Cn2cc(C(=O)Nc3c[nH]c(=O)c(-c4cc5cc(OCCN6CCCC(F)C6)ccc5[nH]4)c3)cn2)cc1` (stereo not shown) [Example 116, 1-(4-Methyl-benzyl)-1H-pyrazole-4-carboxylic acid (5-{5-[2-(3-fluoro-piperidin-1-yl)-ethoxy]-1H-indol-2-yl}-6-oxo-1,6-dihydro-pyridin-3-yl)-amide]: < 0.1 µM.
Next, `Cc1ccc(Cn2cc(C(=O)Nc3c[nH]c(=O)c(-c4cc5cc(OCCCN6CCOCC6)ccc5[nH]4)c3)cn2)cc1` [Example 117, 1-(4-Methyl-benzyl)-1H-pyrazole-4-carboxylic acid {5-[5-(3-morpholin-4-yl-propoxy)-1H-indol-2-yl]-6-oxo-1,6-dihydro-pyridin-3-yl}-amide]: < 0.1 µM; `Cc1ccc(Cn2cc(C(=O)Nc3c[nH]c(=O)c(-c4cc5cc(OCCN6CCOCC6)ccc5[nH]4)c3)cn2)cc1` [Example 118, 1-(4-Methyl-benzyl)-1H-pyrazole-4-carboxylic acid {5-[5-(2-morpholin-4-yl-ethoxy)-1H-indol-2-yl]-6-oxo-1,6-dihydro-pyridin-3-yl}-amide]: < 0.1 µM.
Under `Cc1ccc(Cn2cc(C(=O)Nc3c[nH]c(=O)c(-c4cc5cc(OCCCN6CCCCC6)ccc5[nH]4)c3)cn2)cc1` [Example 119, 1-(4-Methyl-benzyl)-1H-pyrazole-4-carboxylic acid {6-oxo-5-[5-(3-piperidin-1-yl-propoxy)-1H-indol-2-yl]-1,6-dihydro-pyridin-3-yl}-amide] stands < 0.1 µM; under `O=C(Nc1c[nH]c(=O)c(-c2cc3cc(OCCN4CCCCC4)ccc3[nH]2)c1)c1cnn(Cc2ccc(C(F)(F)F)cc2)c1` [Example 121, 1-(4-Trifluoromethyl-benzyl)-1H-pyrazole-4-carboxylic acid {6-oxo-5-[5-(2-piperidin-1-yl-ethoxy)-1H-indol-2-yl]-1,6-dihydro-pyridin-3-yl}-amide], < 0.1 µM.
As to `Cc1ccc(Cn2cc(C(=O)Nc3c[nH]c(=O)c(-c4cc5cc(OCCCN(C)C)ccc5[nH]4)c3)cn2)cc1` [Example 122, 1-(4-Methyl-benzyl)-1H-pyrazole-4-carboxylic acid {5-[5-(3-dimethylamino-propoxy)-1H-indol-2-yl]-6-oxo-1,6-dihydro-pyridin-3-yl}-amide], the IC50 was < 0.1 µM.
Under `CCN(CC)CCCOc1ccc2[nH]c(-c3cc(NC(=O)c4cnn(Cc5ccc(C)cc5)c4)c[nH]c3=O)cc2c1` [Example 123, 1-(4-Methyl-benzyl)-1H-pyrazole-4-carboxylic acid {5-[5-(3-diethylamino-propoxy)-1H-indol-2-yl]-6-oxo-1,6-dihydro-pyridin-3-yl}-amide] stands < 0.1 µM; under `Cc1ccc(Cn2cc(C(=O)Nc3c[nH]c(=O)c(-c4cc5cc(OCCCN6CCN(C)CC6)ccc5[nH]4)c3)cn2)cc1` [Example 124], < 0.1 µM; under `CCN(CC)CCOc1ccc2[nH]c(-c3cc(NC(=O)c4cnn(Cc5ccc(C)cc5)c4)c[nH]c3=O)cc2c1` [Example 125, 1-(4-Methyl-benzyl)-1H-pyrazole-4-carboxylic acid {5-[5-(2-diethylamino-ethoxy)-1H-indol-2-yl]-6-oxo-1,6-dihydro-pyridin-3-yl}-amide], < 0.1 µM.
Under `Cc1ccc(Cn2cc(C(=O)Nc3c[nH]c(=O)c(-c4cc5cc(OCCN6CCN(C)CC6)ccc5[nH]4)c3)cn2)cc1` [Example 126, 1-(4-Methyl-benzyl)-1H-pyrazole-4-carboxylic acid (5-{5-[2-(4-methyl-piperazin-1-yl)-ethoxy]-1H-indol-2-yl}-6-oxo-1,6-dihydro-pyridin-3-yl)-amide] stands < 0.1 µM.
